Like-named read-outs stand apart in the source and are kept apart here.
Tests used:
[1] = system: polynucleotide having the sequence ATACATGGTACATA; test: Photoactivation and binding to 14mer polynucleotide; settings: 1 mM ATACATGGTACATA, blue light as example 9; NMR
Description: The procedure of example 9 was repeated with a 1 mM solution of a polynucleotide having the sequence ATACATGGTACATA, and using the compound obtained in example 2 in place of that obtained in example 1.

HaCaT = test: Phototoxicity, neutral red dye uptake, HaCaT cells; format: cell-based
Description: (§1) 2×6 ft Cosmolux RA Plus (Cosmedico), 15500/100 W light sources were used, each filtered to attenuate UVB/UVC wavelengths. Irradiance was measured with a Waldmann PUMA meter, calibrated to the source using a double grating Spectroradiometer (Bentham, UK).
(§2) Immediately before use, the compounds were dissolved in warm Earle's Balanced Salt Solution (EBSS), sonicated and vortexed to assist dissolution. For experiments, cells were seeded at densities of 3- or 5×10^4 cells/cm^2. After overnight incubation, washed cells were incubated with test compounds in EBSS for 1 h at 310 K/5% CO2. Cells were then irradiated with 5 J cm^−2 glass filtered UVA (1.77 mW cm^−2: λmax 365 nm) for 50 min. Test compounds were removed and cells either prepared immediately for photogenotoxicity assays, or incubated with complete medium for 24 h before assessing phototoxicity. Control plates were treated identically to the test plates and sham irradiated.
(§3) Phototoxicity was monitored by measuring the uptake of neutral red dye into viable cells. Briefly, after irradiation cells were washed and then incubated with DMEM containing 5% FCS, 1% NEAA and 50 μg ml^−1 neutral red dye for 3 h at 310 K/5% CO2. After this time, cells were rapidly washed with formaldehyde containing 1% (w/v) CaCl2, and solubilised in 50% EtOH containing 1% acetic acid. Absorbance was read at 540 nm against a solubilisation solution as blank. The IC50 value was defined as the concentration of compound that inhibited dye uptake by 50% and was calculated using non-linear regression (Graphpad Prism). Goodness of fit was determined from the R^2 values of the curves and 95% confidence intervals.

A2780 = test: Phototoxicity, neutral red dye uptake, A2780 cells; format: cell-based
Description: as §1, §2, §3

A2780CIS = test: Phototoxicity, neutral red dye uptake, A2780CIS cells; format: cell-based
Description: as §1, §2, §3

[2] = dark, sham irradiated control, read-out: IC50 Value HaCaT Dark
[3] = irradiated 5 J cm^-2 UVA, λmax 365 nm, 50 min, neutral red uptake after 24 h, read-out: IC50 Value HaCaT 365 nm
[4] = dark, sham irradiated control, read-out: IC50 Value A2780 Dark
[5] = irradiated 5 J cm^-2 UVA, λmax 365 nm, 50 min, neutral red uptake after 24 h, read-out: IC50 Value A2780 365 nm
[6] = dark, sham irradiated control, read-out: IC50 Value A2780CIS Dark
[7] = irradiated 5 J cm^-2 UVA, λmax 365 nm, 50 min, neutral red uptake after 24 h, read-out: IC50 Value A2780CIS 365 nm

Substance	Binding to 14mer polynucleotide after photoactivation [1]	IC50 (HaCaT; [2]) [µM]	IC50 (HaCaT; [3]) [µM]	IC50 (A2780; [4]) [µM]	IC50 (A2780; [5]) [µM]	IC50 (A2780CIS; [6]) [µM]	IC50 (A2780CIS; [7]) [µM]
Cis,trans-[Pt^IV(en)(N3)2(OH)2] [Example 2]	binding of species containing the cis-[PtII(en)] moiety to the GG moiety had taken place	–	–	–	–	–	–
Trans,trans,trans-[Pt(N3)2(OH)2(NH3)(2-pic)] [FM171]	–	> 236	55.3	> 236	51	> 236	59.8
Trans,trans,trans-[Pt(N3)2(OH)2(NH3)(4-pic)] [FM174]	–	98.8	6.5	–	–	–	–
Trans,trans,trans-[Pt(N3)2(OH)2(NH3)(py)] [FM165]	–	> 244	6.1	> 244	1.9	> 244	16.9
Trans,trans,trans-[Pt(N3)2(OH)2(NH3)(tz)] [FM172]	–	> 241	5.8	187	5.4	> 241	16.1

Source: patent US7928097B2, “Photoreactive compounds and compositions” (priority 2001, dated 2011)
